The values below come from patent US20260015360A1 (MOMA Therapeutics, Inc., priority 2023, published 2026).

In assay [1] the test system is DLD1 WT cells. Put plainly: DLD1 viability assay (CellTiter-Glo, 7 days), DLD1 WT. Format: cell-based. Here is the method:
(§1) The seeding densities are pre-determined from the growth curve kinetics performed to ensure log linear phase of cell growth for these 2 cell lines. These assay plates are then placed in the incubator at 37° C., 5% CO2, relative humidity>90% for a few hours before addition of test compounds. Compounds are dispensed using the Tecan HPD300 or Echo based on the plate map in the appropriate wells of the 384-well plates. […] After addition of the test compounds, the plates are incubated at 37° C., 5% CO2, relative humidity>90% for 7 days. CellTiter-Glo (Promega Cat. No. G7573), ATP detection reagent is prepared according to manufacturer's specifications. Cell assay plates are removed from incubator and bring to room temperature (RT) by letting them sit at bench top for at least 15 min. Using the MultiDrop liquid handler or a multichannel pipette, 35 μL/well of CTG is added and the plates are then placed shakes for 5 seconds, RT. These plates are then incubated for 30 minutes in the dark at RT before measuring luminescence using Spectramax/Enspire/Ensight/Envision/PheraSTAR.
For orientation: ATP-based viability assays read luminescence as a measure of living cells.

The subject of assay [2] is DLD1 BRCA2 (−/−) cells. Kind of assay: DLD1 viability assay (CellTiter-Glo, 7 days), DLD1 BRCA2 (−/−). The format is cell-based. To be noted: read-out: Viability IC50 (μM) DLD1 BRCA2 null. How it is done:
as §1

Like-named read-outs stand apart in the source and are kept apart here.

In the case of `COc1cnc(Cl)cc1-c1cc(C)ncc1C(=O)Nc1nc2ncc(N3CC[C@](C)(OC)[C@H](F)C3)nc2s1` (single isomer, unassigned) [Example 362, 2′-chloro-N-(6-((3R or S,4S or R)-3-fluoro-4-methoxy-4-methylpiperidin-1-yl)thiazolo[4,5-b]pyrazin-2-yl)-5′-methoxy-6-methyl-[4,4′-bipyridine]-3-carboxamide], the IC50 (as a rule, the concentration that gives 50% inhibition) in assay [1] (Homo sapiens, DLD-1, 168 h) is above 10 µM; in assay [2] (Homo sapiens, DLD-1, 168 h) it was 0.1 to 0.25 µM.

In the case of `COc1cnc(Cl)cc1-c1cc(C)ncc1C(=O)Nc1nc2ncc([C@H]3CCN(CC(F)(F)F)C3)nc2s1` (single isomer, unassigned) [Example 364, (S or R)-2′-chloro-5′-methoxy-6-methyl-N-(6-(1-(2,2,2-trifluoroethyl)pyrrolidin-3-yl)thiazolo[4,5-b]pyrazin-2-yl)-[4,4′-bipyridine]-3-carboxamide], the half-inhibitory concentration (IC50) in assay [1] (Homo sapiens, DLD-1, 168 h) was above 10 µM; in assay [2] (Homo sapiens, DLD-1, 168 h), 0.1 to 0.25 µM.

In the case of `COc1cnc(Cl)cc1-c1cc(C)ncc1C(=O)Nc1nc2ncc([C@@H]3CCN(CC(F)(F)F)C3)nc2s1` (single isomer, unassigned) [Example 365, (R or S)-2′-chloro-5′-methoxy-6-methyl-N-(6-(1-(2,2,2-trifluoroethyl)pyrrolidin-3-yl)thiazolo[4,5-b]pyrazin-2-yl)-[4,4′-bipyridine]-3-carboxamide], the IC50 is above 10 µM in assay [1] (Homo sapiens, DLD-1, 168 h) and 0.001 to 0.1 µM in assay [2] (Homo sapiens, DLD-1, 168 h).

On to `COc1cnc(Cl)cc1-c1cc(C)ncc1C(=O)Nc1nc2ncc(N3CC[C@](C)(O)[C@H](F)C3)nc2s1` (single isomer, unassigned) [Example 375, 2′-chloro-N-(6-((3R or S,4S or R)-3-fluoro-4-hydroxy-4-methylpiperidin-1-yl)thiazolo[4,5-b]pyrazin-2-yl)-5′-methoxy-6-methyl-[4,4′-bipyridine]-3-carboxamide], for which the half-inhibitory concentration (IC50) is above 10 µM in assay [1] (Homo sapiens, DLD-1, 168 h) and 0.001 to 0.1 µM in assay [2] (Homo sapiens, DLD-1, 168 h).

With `COc1cnc(Cl)cc1-c1cc(C)ncc1C(=O)Nc1nc2ncc(N3CC[C@@](C)(O)[C@@H](F)C3)nc2s1` (single isomer, unassigned) [Example 376, 2′-chloro-N-(6-((3S or R,4R or S)-3-fluoro-4-hydroxy-4-methylpiperidin-1-yl)thiazolo[4,5-b]pyrazin-2-yl)-5′-methoxy-6-methyl-[4,4′-bipyridine]-3-carboxamide], the IC50 is above 10 µM in assay [1] (Homo sapiens, DLD-1, 168 h) and 0.001 to 0.1 µM in assay [2] (Homo sapiens, DLD-1, 168 h).

With `COc1cnc(Cl)cc1-c1cc(C)ncc1C(=O)Nc1nc2ncc(C3CN(CC(F)(F)F)C3)nc2s1` (single isomer, unassigned) [Example 378, 2′-chloro-5′-methoxy-6-methyl-N-(6-(1-(2,2,2-trifluoroethyl)azetidin-3-yl)thiazolo[4,5-b]pyrazin-2-yl)-[4,4′-bipyridine]-3-carboxamide], the IC50 in assay [1] (Homo sapiens, DLD-1, 168 h) was above 10 µM; in assay [2] (Homo sapiens, DLD-1, 168 h), 0.001 to 0.1 µM.

Turning to `COc1cnc(Cl)cc1-c1cc(C)ncc1C(=O)Nc1nc2ncc([C@H]3CCOC(C)(C)C3)nc2s1` (single isomer, unassigned) [Example 379, (S or R)-2′-chloro-N-(6-(2,2-dimethyltetrahydro-2H-pyran-4-yl)thiazolo[4,5-b]pyrazin-2-yl)-5′-methoxy-6-methyl-[4,4′-bipyridine]-3-carboxamide], the IC50 in assay [1] (Homo sapiens, DLD-1, 168 h) is above 10 µM; in assay [2] (Homo sapiens, DLD-1, 168 h) it was 0.001 to 0.1 µM.

Turning to `COc1cnc(Cl)cc1-c1cc(C)ncc1C(=O)Nc1nc2ncc([C@@H]3CCOC(C)(C)C3)nc2s1` (single isomer, unassigned) [Example 382, (R or S)-2′-chloro-N-(6-(2,2-dimethyltetrahydro-2H-pyran-4-yl)thiazolo[4,5-b]pyrazin-2-yl)-5′-methoxy-6-methyl-[4,4′-bipyridine]-3-carboxamide], the IC50 in assay [1] (Homo sapiens, DLD-1, 168 h) is above 10 µM; in assay [2] (Homo sapiens, DLD-1, 168 h), 0.001 to 0.1 µM.

Take `COc1cnc(Cl)cc1-c1cc(C)ncc1C(=O)Nc1nc2ncc(N3CCO[C@H](C)[C@@H]3C)nc2s1` (single isomer, unassigned) [Example 400, 2′-chloro-N-(6-((2R or S,3S or R)-2,3-dimethylmorpholino)thiazolo [4,5-b]pyrazin-2-yl)-5′-methoxy-6-methyl-[4,4′-bipyridine]-3-carboxamide]: the IC50 in assay [1] (Homo sapiens, DLD-1, 168 h) was above 10 µM; in assay [2] (Homo sapiens, DLD-1, 168 h), 0.001 to 0.1 µM.

Take `COc1cnc(Cl)cc1-c1cc(C)ncc1C(=O)Nc1nc2ncc(C3=CCC(O)(C(F)(F)F)CC3)nc2s1` (single isomer, unassigned) [Example 413, 2′-chloro-N-(6-(4-hydroxy-4-(trifluoromethyl)cyclohex-1-en-1-yl)thiazolo[4,5-b]pyrazin-2-yl)-5′-methoxy-6-methyl-[4,4′-bipyridine]-3-carboxamide]: the IC50 in assay [1] (Homo sapiens, DLD-1, 168 h) was above 10 µM; in assay [2] (Homo sapiens, DLD-1, 168 h), 0.001 to 0.1 µM.

For the molecule `COc1cnc(Cl)cc1-c1cc(C)ncc1C(=O)Nc1nc2ncc([C@H]3CCO[C@H](C)C3)nc2s1` (single isomer, unassigned) [Example 431, 2′-chloro-5′-methoxy-6-methyl-N-(6-((2R or S,4S or R)-2-methyltetrahydro-2H-pyran-4-yl)thiazolo[4,5-b]pyrazin-2-yl)-[4,4′-bipyridine]-3-carboxamide], the IC50 was above 10 µM in assay [1] (Homo sapiens, DLD-1, 168 h) and 0.001 to 0.1 µM in assay [2] (Homo sapiens, DLD-1, 168 h).

For `COc1cnc(Cl)cc1-c1cc(C)ncc1C(=O)Nc1nc2ncc([C@H]3CCO[C@@H](C)C3)nc2s1` (single isomer, unassigned) [Example 434A, 2′-chloro-5′-methoxy-6-methyl-N-(6-((2S or R,4S or R)-2-methyltetrahydro-2H-pyran-4-yl)thiazolo[4,5-b]pyrazin-2-yl)-[4,4′-bipyridine]-3-carboxamide], the half-maximal inhibitory concentration (IC50) in assay [1] (Homo sapiens, DLD-1, 168 h) is above 10 µM; in assay [2] (Homo sapiens, DLD-1, 168 h) it was 0.001 to 0.1 µM.

For `COc1cnc(Cl)cc1-c1cc(C)ncc1C(=O)Nc1nc2ncc([C@@H]3CCO[C@H](C)C3)nc2s1` (single isomer, unassigned) [Example 435, 2′-chloro-5′-methoxy-6-methyl-N-(6-((2R or S,4R or S)-2-methyltetrahydro-2H-pyran-4-yl)thiazolo[4,5-b]pyrazin-2-yl)-[4,4′-bipyridine]-3-carboxamide], the 50% inhibitory concentration (IC50) in assay [1] (Homo sapiens, DLD-1, 168 h) was above 10 µM; in assay [2] (Homo sapiens, DLD-1, 168 h), 0.001 to 0.1 µM.

For the molecule `COc1cnc(Cl)cc1-c1cc(C)ncc1C(=O)Nc1nc2ncc(N3CC[C@H](OC)C(F)(F)C3)nc2s1` (single isomer, unassigned) [Example 441, (S or R)-2′-chloro-N-(6-(3,3-difluoro-4-methoxypiperidin-1-yl)thiazolo[4,5-b]pyrazin-2-yl)-5′-methoxy-6-methyl-[4,4′-bipyridine]-3-carboxamide], the IC50 in assay [1] (Homo sapiens, DLD-1, 168 h) fell in the range of 0.001 to 2.5 µM; in assay [2] (Homo sapiens, DLD-1, 168 h), 0.001 to 0.1 µM.

As to `COc1cnc(Cl)cc1-c1cc(C)ncc1C(=O)Nc1nc2ncc(N3CCC(OC)C(F)(F)C3)nc2s1` (single isomer, unassigned) [Example 444, (R or S)-2′-chloro-N-(6-(3,3-difluoro-4-methoxypiperidin-1-yl)thiazolo[4,5-b]pyrazin-2-yl)-5′-methoxy-6-methyl-[4,4′-bipyridine]-3-carboxamide], the half-inhibitory concentration (IC50) in assay [1] (Homo sapiens, DLD-1, 168 h) was above 10 µM; in assay [2] (Homo sapiens, DLD-1, 168 h) it was 0.001 to 0.1 µM.

With `COc1cnc(Cl)cc1-c1cc(C)ncc1C(=O)Nc1nc2ncc(N3CCC(O)C(F)(F)C3)nc2s1` (single isomer, unassigned) [Example 457, (S or R)-2′-chloro-N-(6-(3,3-difluoro-4-hydroxypiperidin-1-yl)thiazolo[4,5-b]pyrazin-2-yl)-5′-methoxy-6-methyl-[4,4′-bipyridine]-3-carboxamide], the 50% inhibitory concentration (IC50) in assay [1] (Homo sapiens, DLD-1, 168 h) is above 10 µM; in assay [2] it was 0.1 to 0.25 µM.

Turning to `COc1cnc(Cl)cc1-c1cc(C)ncc1C(=O)Nc1nc2ncc(N3CCC(O)C(F)(F)C3)nc2s1` (single isomer, unassigned) [Example 458, (R or S)-2′-chloro-N-(6-(3,3-difluoro-4-hydroxypiperidin-1-yl)thiazolo[4,5-b]pyrazin-2-yl)-5′-methoxy-6-methyl-[4,4′-bipyridine]-3-carboxamide], the half-inhibitory concentration (IC50) in assay [1] is above 10 µM; in assay [2] it was 0.001 to 0.1 µM.

For the molecule `COc1ccccc1-c1cc(C)ncc1C(=O)Nc1nc2ccc(N3CCCCC3)cc2s1` [Example 91, 4-(2-Methoxyphenyl)-6-methyl-N-(6-(piperidin-1-yl)benzo[d]thiazol-2-yl)nicotinamide], the concentration for half-maximal inhibition (IC50) in assay [1] (Homo sapiens, DLD-1, 168 h) is 7.5 to 10 µM; in assay [2] (Homo sapiens, DLD-1, 168 h) it was 0.5 to 2 µM.

As for `COc1cnc(Cl)cc1-c1cc(C)ncc1C(=O)Nc1nc2ncc(C3CCC(OC)(C(F)F)CC3)nc2s1` (stereo not drawn) [Example 383, 2′-chloro-N-(6-(4-(difluoromethyl)-4-methoxycyclohexyl)thiazolo [4,5-b]pyrazin-2-yl)-5′-methoxy-6-methyl-[4,4′-bipyridine]-3-carboxamide], the IC50 in assay [1] (Homo sapiens, DLD-1, 168 h) is above 10 µM; in assay [2] (Homo sapiens, DLD-1, 168 h), 0.001 to 0.1 µM.

On to `COc1nnc(C(F)F)cc1-c1cc(C)ncc1C(=O)Nc1nc2ncc(-c3ccnc(C)c3)nc2s1` [Example 384, 4-(6-(difluoromethyl)-3-methoxypyridazin-4-yl)-6-methyl-N-(6-(2-methylpyridin-4-yl)thiazolo[4,5-b]pyrazin-2-yl)nicotinamide], for which the 50% inhibitory concentration (IC50) was above 10 µM in assay [1] (Homo sapiens, DLD-1, 168 h) and 0.1 to 0.25 µM in assay [2] (Homo sapiens, DLD-1, 168 h).

As for `COc1cnc(Cl)cc1-c1cc(C)ncc1C(=O)Nc1nc2ncc(C3=CCC(OC)(C(F)F)CC3)nc2s1` (stereo not drawn) [Example 388, 2′-chloro-N-(6-(4-(difluoromethyl)-4-methoxycyclohex-1-en-1-yl)thiazolo[4,5-b]pyrazin-2-yl)-5′-methoxy-6-methyl-[4,4′-bipyridine]-3-carboxamide], the IC50 was above 10 µM in assay [1] (Homo sapiens, DLD-1, 168 h) and 0.001 to 0.1 µM in assay [2] (Homo sapiens, DLD-1, 168 h).
